# Assay results as given in patent US12570613B2, “Imidazoquinoline or benzoindazolone compound and intermediate for preparing same” (LMITO THERAPEUTICS INC., priority 2020, dated 2026).
# Biological target: NQO1 protein (Homo sapiens, UniProt P15559)
# Assay: In vitro NQO1 enzyme activity assay (cytochrome C reduction, absorbance at 550 nm)
# Type: biochemical
# Settings: NQO1 2 ng, 10 nM Compound (Table 1)
# Protocol: In order to evaluate the activity of the synthesized compound in NQO1, the experiments were performed as follows:
# The synthesized compound was dissolved in DMSO to make a 10 mM stock solution, which was further diluted with DMSO to 250 μM so as to prepare a working solution. For experimental groups, the working solution of the compound was added to an enzyme reaction solution in which 50 μL of 1.54 mM Cytochrome C solution was added to 900 μL of 50 mM Tris-HCl (pH7.5) containing 0.14% BSA. For negative control groups, DMSO not containing the compound of the invention was added to the enzyme reaction solution as above. For each experimental and control group, 20 μL of 100 ng/mL NQO1 protein was added, and then 10 μL of 20 mM NADH was added to bring up the total volume to 1 mL. The change of absorbance was measured at 550 nm for 10 minutes using 1 mL cuvette. The kinetics of reaction was measured by the increase of absorbance as the cytochrome C was reduced at 550 nm over 10 minutes. The activity of NQO1 was measured by the amount of cytochrome C that is being reduced (nmol cytochrome C that was reduced/min/ug NQO1 protein). • Absorption coefficient of Cytochrome C: 21.1 (μmol/mL)^−1cm^−1 • BSA: Bovine Serum Albumin • […]: Tris(hydroxymethyl)aminomethane hydrochloride (buffer solution) • Equipment=Cary 100 UV-Vis Spectrophotometer • The results are shown in Tables 1 to 8.
# Sequence of NQO1 protein (P15559 whole entry, species assumed): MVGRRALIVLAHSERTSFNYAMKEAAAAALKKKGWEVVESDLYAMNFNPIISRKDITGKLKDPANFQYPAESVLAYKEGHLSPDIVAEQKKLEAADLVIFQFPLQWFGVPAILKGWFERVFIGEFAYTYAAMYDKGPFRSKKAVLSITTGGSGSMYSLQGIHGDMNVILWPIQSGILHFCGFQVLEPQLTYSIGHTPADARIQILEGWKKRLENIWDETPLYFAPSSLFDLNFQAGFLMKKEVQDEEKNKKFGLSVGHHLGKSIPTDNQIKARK
row,SMILES,NQO1 activity assay Cytochrome C reduced/min/μg NQO1 protein
1,"COCc1nn(-c2ccccc2)c2c1C(=O)C(=O)c1ccccc1-2 [Compound 18, 3-(Methoxymethyl)-1-phenyl-1H-benzo[g]indazol-4,5-dione]",189 nmol cytochrome C that was reduced/min/ug NQO1 protein
2,"O=C1C(=O)c2c(-c3ccc(F)cc3)nn(-c3ccccc3)c2-c2ccccc21 [Compound 14, 3-(4-Fluorophenyl)-1-phenyl-1H-benzo[g]indazol-4,5-dione]",156 nmol cytochrome C that was reduced/min/ug NQO1 protein
3,"CCCCCCCc1nn(-c2ccccc2)c2c1C(=O)C(=O)c1ccccc1-2 [Compound 11, 3-Heptyl-1-phenyl-1H-benzo[g]indazol-4,5-dione]",203 nmol cytochrome C that was reduced/min/ug NQO1 protein
4,"O=C1C(=O)c2c(CBr)nn(-c3ccccc3)c2-c2ccccc21 [Compound 16, 3-(Bromomethyl)-1-phenyl-1H-benzo[g]indazol-4,5-dione]",596 nmol cytochrome C that was reduced/min/ug NQO1 protein
5,"CN(C)C(=O)c1nc2n(c1-c1ccccc1)-c1ccccc1C(=O)C2=O [Compound 7, N,N-dimethyl-4,5-dioxo-1-phenyl-4,5-dihydroimidazo[1,2-a]quinolin-2-carboxamide]",96 nmol cytochrome C that was reduced/min/ug NQO1 protein
6,"CNC(=O)c1nc2n(c1-c1ccccc1)-c1ccccc1C(=O)C2=O [Compound 8, N-methyl-4,5-dioxo-1-phenyl-4,5-dihydroimidazo[1,2-a]quinolin-2-carboxamide]",112 nmol cytochrome C that was reduced/min/ug NQO1 protein
7,"Cc1nn(-c2ccccn2)c2c1C(=O)C(=O)c1ccccc1-2 [Compound 30, 3-Methyl-1-(pyridin-2-yl)-1H-benzo[g]indazol-4,5-dione]",494 nmol cytochrome C that was reduced/min/ug NQO1 protein
8,"O=C1C(=O)c2c(-c3ccc(F)c(F)c3)nn(-c3ccccc3)c2-c2ccccc21 [Compound 15, 3-(3,4-Difluorophenyl)-1-phenyl-1H-benzo[g]indazol-4,5-dione]",190 nmol cytochrome C that was reduced/min/ug NQO1 protein
9,"Cc1nn(-c2cc(F)cc(F)c2)c2c1C(=O)C(=O)c1ccccc1-2 [Compound 27, 1-(3,5-Difluorophenyl)-3-methyl-1H-benzo[g]indazol-4,5-dione]",415 nmol cytochrome C that was reduced/min/ug NQO1 protein
10,"Cc1nn(-c2ccccc2)c2c1C(=O)C(=O)c1cc(F)ccc1-2 [Compound 35, 7-Fluoro-3-methyl-1-phenyl-1H-benzo[g]indazol-4,5-dione]",694 nmol cytochrome C that was reduced/min/ug NQO1 protein
11,"Cc1nn(-c2ccc(Cl)cc2Cl)c2c1C(=O)C(=O)c1ccccc1-2 [Compound 28, 1-(2,4-Dichlorophenyl)-3-methyl-1H-benzo[g]indazol-4,5-dione]",745 nmol cytochrome C that was reduced/min/ug NQO1 protein
12,"Cc1nn(-c2ccc(F)cc2F)c2c1C(=O)C(=O)c1ccccc1-2 [Compound 32, 1-(2,4-Difluorophenyl)-3-methyl-1H-benzo[g]indazol-4,5-dione]",839 nmol cytochrome C that was reduced/min/ug NQO1 protein
13,"CCOC(=O)c1cn2c(n1)C(=O)C(=O)c1ccccc1-2 [Compound 5, Ethyl 4,5-dioxo-4,5-dihydroimidazo[1,2-a]quinolin-2-carboxylate]",816 nmol cytochrome C that was reduced/min/ug NQO1 protein
14,"Cc1nn(-c2ccc(F)cc2)c2c1C(=O)C(=O)c1ccccc1-2 [Compound 25, 1-(4-Fluorophenyl)-3-methyl-1H-benzo[g]indazol-4,5-dione]",463 nmol cytochrome C that was reduced/min/ug NQO1 protein

# Same assay, conditions: NQO1 2 ng, 50 nM Compound (Table 2)
row,SMILES,NQO1 activity assay Cytochrome C reduced/min/μg NQO1 protein
1,"Cc1nn(-c2ccc(C(=O)O)cc2)c2c1C(=O)C(=O)c1ccccc1-2 [Compound 37, 4-(3-Methyl-4,5-dioxo-4,5-dihydro-1H-benzo[g]indazol-1-yl)benzoic acid]",1034 nmol cytochrome C that was reduced/min/ug NQO1 protein
2,"Cc1nn(Cc2ccccc2)c2c1C(=O)C(=O)c1ccccc1-2 [Compound 63, 1-Benzyl-3-methyl-1H-benzo[g]indazol-4,5-dione]",1567 nmol cytochrome C that was reduced/min/ug NQO1 protein

# Same assay, conditions: NQO1 2 ng, 50 nM Compound (Table 3)
row,SMILES,NQO1 activity assay Cytochrome C reduced/min/μg NQO1 protein
1,"Cc1c2c(nn1-c1ccncc1)-c1ccccc1C(=O)C2=O [Compound 42, 3-Methyl-2-(pyridin-4-yl)-2H-benzo[g]indazol-4,5-dione]",3212 nmol cytochrome C that was reduced/min/ug NQO1 protein
2,"Cc1c2c(nn1S(=O)(=O)c1ccccc1)-c1ccccc1C(=O)C2=O [Compound 44, 3-Methyl-2-(phenylsulfonyl)-2H-benzo[g]indazol-4,5-dione]",2169 nmol cytochrome C that was reduced/min/ug NQO1 protein

# Same assay, conditions: NQO1 2 ng, 50 nM Compound (Table 4)
row,SMILES,NQO1 activity assay Cytochrome C reduced/min/μg NQO1 protein
1,"Cc1nn(-c2cncc(Cl)c2)c2c1C(=O)C(=O)c1ccccc1-2 [Compound 39, 1-(5-Chloropyridin-3-yl)-3-methyl-1H-benzo[g]indazol-4,5-dione]",3285 nmol cytochrome C that was reduced/min/ug NQO1 protein

# Same assay, conditions: NQO1 2 ng, 50 nM Compound (Table 5)
row,SMILES,NQO1 activity assay Cytochrome C reduced/min/μg NQO1 protein
1,"Cc1c2c(nn1S(=O)(=O)c1cccc(Cl)c1)-c1ccccc1C(=O)C2=O [Compound 47, 2-(3-Chlorophenylsulfonyl)-3-methyl-2H-benzo[g]indazol-4,5-dione]",1277 nmol cytochrome C that was reduced/min/ug NQO1 protein
2,"Cc1c2c(nn1S(=O)(=O)c1cccnc1)-c1ccccc1C(=O)C2=O [Compound 48, 3-Methyl-2-(pyridin-3-ylsulfonyl)-2H-benzo[g]indazol-4,5-dione]",1749 nmol cytochrome C that was reduced/min/ug NQO1 protein
3,"Cc1c2c(nn1S(=O)(=O)c1ccc(F)cc1)-c1ccccc1C(=O)C2=O [Compound 45, 3-Methyl-2-(4-Fluorophenylsulfonyl)-2H-benzo[g]indazol-4,5-dione]",2092 nmol cytochrome C that was reduced/min/ug NQO1 protein
4,"Cc1c2c(nn1S(=O)(=O)c1ccccc1Cl)-c1ccccc1C(=O)C2=O [Compound 46, 2-(2-Chlorophenylsulfonyl)-3-methyl-2H-benzo[g]indazol-4,5-dione]",1522 nmol cytochrome C that was reduced/min/ug NQO1 protein

# Same assay, conditions: NQO1 2 ng, 50 nM Compound (Table 6)
row,SMILES,NQO1 activity assay Cytochrome C reduced/min/μg NQO1 protein
1,"Cc1c2c(nn1S(=O)(=O)c1ccc(Cl)cc1)-c1ccccc1C(=O)C2=O [Compound 49, 2-(4-Chlorophenylsulfonyl)-3-methyl-2H-benzo[g]indazol-4,5-dione]",2171 nmol cytochrome C that was reduced/min/ug NQO1 protein

# Same assay, conditions: NQO1 2 ng, 50 nM Compound (Table 7)
row,SMILES,NQO1 activity assay Cytochrome C reduced/min/μg NQO1 protein
1,"COC(=O)c1ccc(S(=O)(=O)n2nc3c(c2C)C(=O)C(=O)c2ccccc2-3)cc1 [Compound 52, Methyl 4-(3-methyl-4,5-dioxo-4,5-dihydro-2H-benzo[g]indazol-2-ylsulfonyl)benzoate]",2179 nmol cytochrome C that was reduced/min/ug NQO1 protein

# Same assay, conditions: NQO1 2 ng, 50 nM Compound (Table 8)
row,SMILES,NQO1 activity assay Cytochrome C reduced/min/μg NQO1 protein
1,"Cc1c2c(nn1S(=O)(=O)c1ccc(F)cc1F)-c1ccccc1C(=O)C2=O [Compound 59, 2-(2,4-Difluorophenylsulfonyl)-3-methyl-2H-benzo[g]indazol-4,5-dione]",1923 nmol cytochrome C that was reduced/min/ug NQO1 protein
2,"Cc1ccc(CCn2nc3c(c2C)C(=O)C(=O)c2ccccc2-3)cc1 [Compound 69, 3-Methyl-2-(4-methylphenethyl)-2H-benzo[g]indazol-4,5-dione]",2460 nmol cytochrome C that was reduced/min/ug NQO1 protein
3,"Cc1ccc(CCn2nc(C)c3c2-c2ccccc2C(=O)C3=O)cc1 [Compound 68, 3-Methyl-1-(4-methylphenethyl)-1H-benzo[g]indazol-4,5-dione]",1865 nmol cytochrome C that was reduced/min/ug NQO1 protein
4,"Cc1c2c(nn1CCc1ccccc1F)-c1ccccc1C(=O)C2=O [Compound 70, 2-(2-Fluorophenethyl)-3-methyl-2H-benzo[g]indazol-4,5-dione]",1611 nmol cytochrome C that was reduced/min/ug NQO1 protein
